Patent publication US20260048062A1, “FUSED AMINO PYRIMIDINE COMPOUNDS FOR TREATMENT OF PSYCHOSIS AND PSYCHOTIC DISORDERS” (Ovid Therapeutics Inc., priority 2024, published 2026)

Target: T1, KCC2-S940A (Homo sapiens, UniProt Q9H2X9, S963A)
T1 construct: expressed in transfected cells; host or cells: HEK-293
T1 sequence (Q9H2X9 1-1116 isoform Q9H2X9-2 S940A): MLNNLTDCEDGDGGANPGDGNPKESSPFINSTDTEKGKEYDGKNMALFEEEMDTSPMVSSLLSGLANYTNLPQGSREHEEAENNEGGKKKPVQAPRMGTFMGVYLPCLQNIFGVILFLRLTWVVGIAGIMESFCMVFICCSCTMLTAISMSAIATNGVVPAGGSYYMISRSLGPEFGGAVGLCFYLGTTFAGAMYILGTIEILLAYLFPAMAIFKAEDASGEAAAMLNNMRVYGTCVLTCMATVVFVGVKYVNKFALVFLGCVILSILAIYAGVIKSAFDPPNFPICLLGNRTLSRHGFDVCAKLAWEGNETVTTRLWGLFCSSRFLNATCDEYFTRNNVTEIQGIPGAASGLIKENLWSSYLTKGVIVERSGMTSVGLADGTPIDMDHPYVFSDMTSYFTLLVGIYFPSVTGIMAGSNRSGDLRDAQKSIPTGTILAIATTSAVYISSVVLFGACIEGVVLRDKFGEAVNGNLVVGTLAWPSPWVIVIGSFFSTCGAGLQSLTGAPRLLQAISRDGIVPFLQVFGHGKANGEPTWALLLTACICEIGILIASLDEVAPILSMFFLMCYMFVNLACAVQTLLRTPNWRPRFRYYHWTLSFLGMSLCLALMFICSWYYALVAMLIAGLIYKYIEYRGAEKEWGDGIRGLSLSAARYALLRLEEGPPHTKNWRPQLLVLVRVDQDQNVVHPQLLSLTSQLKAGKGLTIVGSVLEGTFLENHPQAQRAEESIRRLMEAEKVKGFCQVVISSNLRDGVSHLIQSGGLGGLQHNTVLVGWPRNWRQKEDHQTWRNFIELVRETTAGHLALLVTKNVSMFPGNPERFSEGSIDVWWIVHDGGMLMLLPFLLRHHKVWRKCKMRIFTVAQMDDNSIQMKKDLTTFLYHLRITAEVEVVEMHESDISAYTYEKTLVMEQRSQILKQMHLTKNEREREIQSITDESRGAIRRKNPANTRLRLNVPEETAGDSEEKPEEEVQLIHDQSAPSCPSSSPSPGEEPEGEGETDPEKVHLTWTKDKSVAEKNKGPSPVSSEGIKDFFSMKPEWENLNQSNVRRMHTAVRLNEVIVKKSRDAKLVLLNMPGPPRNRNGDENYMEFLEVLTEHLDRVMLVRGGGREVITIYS
Assay: Tl+ flux assay, HEK-293 cells expressing KCC2-S940A
Format: cell-based
Method: FLIPR TI Flux assay. HEK-293 cells were washed with HBSS, and then incubated with loading buffer containing TI sensitive fluorescent dye (https://www.moleculardevices.com), 20 μM bumetanide 20 μM ouabain and 2.5 mM probenecid for 1 h at room temperature (RT) under control conditions or with drugs in the dark using a FlexStation 3 microplate reader (Molecular Devices) and imaged […] for 30 min. Stimulus buffer was added containing 5 mM K^+/0.5 mM Tl^+ and cells were imaged every 1.5 over a 190 second time course The initial rate Tl^+ uptake (Relative Fluorescence Units (RFU) per second) was determined following addition of the stimulus buffer as outlined previously (Conway et al., 2017, supra) (Lee et al., 2022, supra).
Compared to KCC2, effects on KCC3, KCC4, and NKCC1 were only seen at concentrations more than 35-fold that of KCC2 (>100 μM) (FIG. 1G).

Compound: C[C@@H]1CN(c2nc3c(c(Nc4ccc(C5CCCCC5)cc4)n2)COC3)CCO1 [Compound A, (R)—N-(4-cyclohexylphenyl)-2-(2-methylmorpholino)-5,7-dihydrofuro[3,4-d]pyrimidin-4-amine]
- activity of KCC2-S940A construct: increased the activity
